Earlier results on two molecules are cited in patent US20040266821A1, “Acylated piperidine derivatives as melanocortin-4 receptor agonists” (priority 2001, published 2004).

Test in data set [1]: not given
The source holds these as a separate data set.

For data set [2] the following is noted: oral route.

In the case of `Cc1ccc(N(CC2=NCCN2)c2cccc(O)c2)cc1` [phentolamine], where the note is “after an oral dose”, the duration of effect was 2 h and the onset of action was 5 to 30 min. For the same molecule, the “share of men/patients with adequate response” value (oral) is recorded as 35-40%.

Take “Ac-Nle-c[Asp-His-DPhe-Arg-Trp-Lys]-NH2 [MT-II]”: in data set [1] (in vivo), the duration of action entry is given as “approximately 2.5 hours” and the “time to onset of erection” value is 10 to 20 min. In data set [1] (injected intramuscularly or subcutaneously), the response rate is on record as 75%. Besides, the “absorption into the systemic circulation” value in data set [2] is given as “not absorbed into the systemic circulation”.
